Experimental data from the NIST ThermoML archive (doi:10.1021/je8008073).
± gives the expanded uncertainty stated by the source.

Assay: wn = mass fraction of the nth substance listed
Settings: Liquid; for mass density: Vibrating tube method; for viscosity: Falling or rolling sphere viscometry

CC(C)Cc1ccccc1 [(2-methylpropyl)benzene] + CCCCCCCCCCCC
Settings	mass density [kg/m3]	viscosity [mPa·s]
293.15 K, 100 kPa, w2 = 0.5	795.4 ± 1	–
293.15 K, 2000 kPa, w2 = 0.5	796.7 ± 1	–
293.15 K, 4000 kPa, w2 = 0.5	798.1 ± 1	–
293.15 K, 6000 kPa, w2 = 0.5	799.5 ± 1	–
293.15 K, 8000 kPa, w2 = 0.5	801.1 ± 1	–
293.15 K, 10000 kPa, w2 = 0.5	802.5 ± 1	–
293.15 K, 12000 kPa, w2 = 0.5	803.7 ± 1	–
293.15 K, 14000 kPa, w2 = 0.5	805 ± 1	–
293.15 K, 16000 kPa, w2 = 0.5	806.3 ± 1.1	–
293.15 K, 18000 kPa, w2 = 0.5	807.6 ± 1.1	–
293.15 K, 20000 kPa, w2 = 0.5	808.9 ± 1.1	–
295.65 K, 100 kPa, w2 = 0.5	793.6 ± 1	–
295.65 K, 2000 kPa, w2 = 0.5	794.9 ± 1	–
295.65 K, 4000 kPa, w2 = 0.5	796.3 ± 1	–
295.65 K, 6000 kPa, w2 = 0.5	797.7 ± 1	–
295.65 K, 8000 kPa, w2 = 0.5	799.1 ± 1	–
295.65 K, 10000 kPa, w2 = 0.5	800.5 ± 1	–
295.65 K, 12000 kPa, w2 = 0.5	801.8 ± 1	–
295.65 K, 14000 kPa, w2 = 0.5	803.1 ± 1.1	–
295.65 K, 16000 kPa, w2 = 0.5	804.3 ± 1.1	–
295.65 K, 18000 kPa, w2 = 0.5	805.6 ± 1.1	–
295.65 K, 20000 kPa, w2 = 0.5	806.8 ± 1.1	–
298.15 K, 100 kPa, w1 = 0.48	789.5 ± 1	–
298.15 K, 100 kPa, w1 = 0.49	790.4 ± 1	–
298.15 K, 100 kPa, w1 = 0.5	791.7 ± 1	–
298.15 K, 100 kPa, w1 = 0.51	792.7 ± 1	–
298.15 K, 100 kPa, w1 = 0.52	793.6 ± 1	–
298.15 K, 100 kPa, w2 = 0.5	791.7 ± 1	1.09 ± 0.05
298.15 K, 2000 kPa, w1 = 0.48	790.9 ± 1	–
298.15 K, 2000 kPa, w1 = 0.49	792 ± 1	–
298.15 K, 2000 kPa, w1 = 0.5	793.1 ± 1	–
298.15 K, 2000 kPa, w1 = 0.51	794.1 ± 1	–
298.15 K, 2000 kPa, w1 = 0.52	795.2 ± 1	–
298.15 K, 2000 kPa, w2 = 0.5	793.1 ± 1	–
298.15 K, 4000 kPa, w1 = 0.48	792.4 ± 1	–
298.15 K, 4000 kPa, w1 = 0.49	793.5 ± 1	–
298.15 K, 4000 kPa, w1 = 0.5	794.5 ± 1	–
298.15 K, 4000 kPa, w1 = 0.51	795.7 ± 1	–
298.15 K, 4000 kPa, w1 = 0.52	796.6 ± 1	–
298.15 K, 4000 kPa, w2 = 0.5	794.5 ± 1	1.14 ± 0.05
298.15 K, 6000 kPa, w1 = 0.48	793.9 ± 1	–
298.15 K, 6000 kPa, w1 = 0.49	794.9 ± 1	–
298.15 K, 6000 kPa, w1 = 0.5	795.9 ± 1	–
298.15 K, 6000 kPa, w1 = 0.51	797 ± 1	–
298.15 K, 6000 kPa, w1 = 0.52	797.9 ± 1	–
298.15 K, 6000 kPa, w2 = 0.5	795.9 ± 1	–
298.15 K, 8000 kPa, w1 = 0.48	795.3 ± 1	–
298.15 K, 8000 kPa, w1 = 0.49	796.3 ± 1	–
298.15 K, 8000 kPa, w1 = 0.5	797.3 ± 1	–
298.15 K, 8000 kPa, w1 = 0.51	798.4 ± 1	–
298.15 K, 8000 kPa, w1 = 0.52	799.3 ± 1	–
298.15 K, 8000 kPa, w2 = 0.5	797.3 ± 1	–
298.15 K, 10000 kPa, w1 = 0.48	796.6 ± 1	–
298.15 K, 10000 kPa, w1 = 0.49	797.4 ± 1	–
298.15 K, 10000 kPa, w1 = 0.5	798.6 ± 1	–
298.15 K, 10000 kPa, w1 = 0.51	799.7 ± 1	–
298.15 K, 10000 kPa, w1 = 0.52	800.6 ± 1	–
298.15 K, 10000 kPa, w2 = 0.5	798.6 ± 1	1.22 ± 0.05
298.15 K, 12000 kPa, w1 = 0.48	797.9 ± 1	–
298.15 K, 12000 kPa, w1 = 0.49	798.7 ± 1	–
298.15 K, 12000 kPa, w1 = 0.5	799.9 ± 1	–
298.15 K, 12000 kPa, w1 = 0.51	801 ± 1	–
298.15 K, 12000 kPa, w1 = 0.52	801.9 ± 1	–
298.15 K, 12000 kPa, w2 = 0.5	799.9 ± 1	–
298.15 K, 14000 kPa, w1 = 0.48	799.2 ± 1.1	–
298.15 K, 14000 kPa, w1 = 0.49	800.1 ± 1.1	–
298.15 K, 14000 kPa, w1 = 0.5	801.3 ± 1.1	–
298.15 K, 14000 kPa, w1 = 0.51	802.3 ± 1.1	–
298.15 K, 14000 kPa, w1 = 0.52	803.2 ± 1.1	–
298.15 K, 14000 kPa, w2 = 0.5	801.3 ± 1.1	–
298.15 K, 16000 kPa, w1 = 0.48	800.5 ± 1.1	–
298.15 K, 16000 kPa, w1 = 0.49	801.3 ± 1.1	–
298.15 K, 16000 kPa, w1 = 0.5	802.6 ± 1.1	–
298.15 K, 16000 kPa, w1 = 0.51	803.5 ± 1.1	–
298.15 K, 16000 kPa, w1 = 0.52	804.5 ± 1.1	–
298.15 K, 16000 kPa, w2 = 0.5	802.6 ± 1.1	–
298.15 K, 18000 kPa, w1 = 0.48	801.7 ± 1.1	–
298.15 K, 18000 kPa, w1 = 0.49	802.6 ± 1.1	–
298.15 K, 18000 kPa, w1 = 0.5	803.8 ± 1.1	–
298.15 K, 18000 kPa, w1 = 0.51	804.7 ± 1.1	–
298.15 K, 18000 kPa, w1 = 0.52	805.7 ± 1.1	–
298.15 K, 18000 kPa, w2 = 0.5	803.8 ± 1.1	–
298.15 K, 20000 kPa, w1 = 0.48	803.1 ± 1.1	–
298.15 K, 20000 kPa, w1 = 0.49	803.9 ± 1.1	–
298.15 K, 20000 kPa, w1 = 0.5	805.1 ± 1.1	–
298.15 K, 20000 kPa, w1 = 0.51	806 ± 1.1	–
298.15 K, 20000 kPa, w1 = 0.52	807 ± 1.1	–
298.15 K, 20000 kPa, w2 = 0.5	805.1 ± 1.1	–
300.65 K, 100 kPa, w2 = 0.5	789.9 ± 1	–
300.65 K, 2000 kPa, w2 = 0.5	791.2 ± 1	–
300.65 K, 4000 kPa, w2 = 0.5	792.6 ± 1	–
300.65 K, 6000 kPa, w2 = 0.5	794 ± 1	–
300.65 K, 8000 kPa, w2 = 0.5	795.4 ± 1	–
300.65 K, 10000 kPa, w2 = 0.5	796.8 ± 1	–
300.65 K, 12000 kPa, w2 = 0.5	798.1 ± 1	–
300.65 K, 14000 kPa, w2 = 0.5	799.4 ± 1.1	–
300.65 K, 16000 kPa, w2 = 0.5	800.7 ± 1.1	–
300.65 K, 18000 kPa, w2 = 0.5	802 ± 1.1	–
300.65 K, 20000 kPa, w2 = 0.5	803.3 ± 1.1	–
303.15 K, 100 kPa, w2 = 0.5	788.1 ± 1	–
303.15 K, 2000 kPa, w2 = 0.5	789.6 ± 1	–
303.15 K, 4000 kPa, w2 = 0.5	791.1 ± 1	–
303.15 K, 6000 kPa, w2 = 0.5	792.5 ± 1	–
303.15 K, 8000 kPa, w2 = 0.5	794 ± 1	–
303.15 K, 10000 kPa, w2 = 0.5	795.4 ± 1	–
303.15 K, 12000 kPa, w2 = 0.5	796.7 ± 1	–
303.15 K, 14000 kPa, w2 = 0.5	798.1 ± 1.1	–
303.15 K, 16000 kPa, w2 = 0.5	799.4 ± 1.1	–
303.15 K, 18000 kPa, w2 = 0.5	800.8 ± 1.1	–
303.15 K, 20000 kPa, w2 = 0.5	802 ± 1.1	–
